System: RFP-GFP-LC3 expressing HeLa cells
Assay: RFP-GFP-LC3 (tfLC3) fluorescence image-based autophagy assay
Format: cell-based
From the text: Prompted by the fact that many available autophagy chemical modulators lack either potency or specificity (Kimura et al., 2013), a fluorescence image-based assay was set up to screen small molecules affecting autophagy. HeLa cells, an autophagy competent cell line, were infected with lentiviruses carrying expression cassettes that encode RFP-GFP-LC3 (tfLC3) (Kimura et al., 2007). Thus, the LC3-II positive autophagosomes are labeled with both GFP and RFP signals shown as yellow puncta, and after fusion with lysosomes, autolysosomes are shown as red only puncta because GFP loses its fluorescence in acidic pH.
Next, a panel of small chemicals that are commercially available and have been previously shown to affect vesicle trafficking or organelle morphology were selected and screened for their effects on autophagy regulation in tfLC3 expressing HeLa cells (data not shown).

| SMILES | LC3 puncta (yellow = autophagosomes, red only = autolysosomes) |
| --- | --- |
| CCN(CC)CCCC(C)Nc1ccnc2cc(Cl)ccc12 (centres unmarked) [CQ, Chloroquine] | markedly induced the accumulation of yellow puncta only |
| CO/C1=C\C(C)=C\[C@@H](C)[C@@H](O)[C@@H](C)C/C(C)=C/C=C/[C@H](OC)[C@@H]([C@@H](C)[C@@H](O)[C@H](C)[C@@]2(O)C[C@@H](O)[C@H](C)[C@@H](C(C)C)O2)OC1=O [bafilomycin, Bafilomycin A1] | markedly induced the accumulation of yellow puncta only |

Source: patent US9717737B2, “Vacuolin-1 as an inhibitor of autophagy and endosomal trafficking and the use thereof for inhibiting tumor progression” (The University of Hong Kong, priority 2014, dated 2017)
